The nature of data set [1]: PAMPA blood-brain barrier permeability. The class given is in vitro ADME. Particulars: PAMPA-BBB, pH 7.4; read-out: BBB Pe. As for the experimental part:
One mg of each compound was solubilized in ethanol (1 mL) in a 5 mL flask, and an additional 500 μL ethanol and 3.5 mL PBS buffer (pH 7.4) were added to this solution. […] 180 μL of a PBS (pH 7.4)/ethanol (70:30) solution were then added to the wells of a 96-well receiver plate, and 5 μL of a porcine brain lipid solution (20 mg/mL in dodecane) to the wells of a 96-well donor plate. […] Afterward, the donor plate was removed, and the content of the receiver plate was transferred to a UV reading plate, which was read using a microplate reader (SpectraMax 5 – Molecular Devices). A reference sample for the internal correction of the microplate reader was prepared using 180 μL of the PBS (pH 7.4)/ethanol (70:30) solution (adapted from ref ). The optical density values obtained from the content of the receiver plate were compared with the ones obtained from readings performed with the initial solutions containing each compound, before their addition to the donor plate. […] The optical density values for the experimental controls were used to determine the equation of the linear regression (optical density vs P e ), which allowed the determination of the P e value of each compound from the optical density values obtained from the receiver plate, using an in-house Microsoft Excel spreadsheet.

The test system of a further data set is L. braziliensis. Briefly: Inhibition of growth of L. braziliensis in THP-1 macrophages. Format: cell-based. Particulars: Leishmania braziliensis. An excerpt:
1 In Vitro Antileishmanial Potency, Selectivity Index, and ADME Properties of Compounds 1 – 6 | column: L. braziliensis IC50 (μM)^b (SI)^b

For another data set, the system named is L. infantum GSK-3A. Briefly: GSK-3A enzyme inhibition (LANCE TR-FRET). Format: biochemical. Particulars: concentrations up to 30 μM, 50 nM enzyme. As for the experimental part:
The following controls were included: protein in 1% DMSO (100% activity), 10 μM AZD-5438 (0% activity), and buffer without enzyme (blank).
To detect the progress of the enzymatic reaction, a commercially available TR-FRET-based assay (LANCE TR-FRET, PerkinElmer) was used. In the enzymatic step, purified protein kinase and the peptide substrate were incubated with compounds 1 – 6 for 30 min at 25 °C before the addition of ATP to start the reaction, which was run at 30 °C (2 h for GSK-3A or 1 h 15 min for GSK-3B). […]. […]
The fluorescence signal was measured using a CLARIOstar microplate reader (BMG LABTECH) set with an excitation wavelength of 320 nm and an emission wavelength of 665 nm. MARS software (BMG LABTECH) was used to analyze the data obtained after reading each plate. The background fluorescence signal (blank) was subtracted from the fluorescence signal obtained for each reaction, in order to reflect the specific signal of enzymatic activity. The data was then analyzed with the GraphPad Prism v10 software, using the equation “log(inhibitor) vs response - variable slope (four parameters) - Y = Bottom + (Top-Bottom)/(1 + 10̂((LogIC50-X)* HillSlope))” to obtain dose–response curves and determine IC50 values. […]

Another data set deals with L. braziliensis SOD. Briefly: SOD interaction by differential scanning fluorimetry. Format: binding, Leishmania braziliensis. As for the experimental part:
(§1) The assays were performed using an Applied Biosystems 7500 Fast RT-PCR system (Applied Biosystems, Foster City, CA, USA), in triplicate, with 96-well PCR plates (BioRad, Hercules, CA, USA) sealed with transparent capping strips (BioRad, Hercules, CA, USA). The plates were centrifugated for 2 min at 2000 rpm at 25 °C. The temperature was then ramped up from 25 to 85 °C, increasing 1 °C per minute, while fluorescence signals were monitored using SYPRO Orange dye, with an excitation wavelength of 492 nm and an emission wavelength of 610 nm.
(§2) The DSF conditions used in this study have been previously described. , Briefly, each well contained 10 μM L. braziliensis Hsp90 or 5 μM L. braziliensis SOD, 1 μL of 5X SYPRO Orange, buffer A (50 mM PBS, 100 mM NaCl, pH 7.0 for L. braziliensis SOD or 50 mM Tris-HCl, 100 mM KCl, pH 8.0 for L. braziliensis Hsp90), and either 1 μL DMSO (5% v/v, negative control) or 1 – 6 (diluted in DMSO). […] Raw fluorescence data was collected using the Applied Biosystems 7500 Fast Software v2.0 and then exported to NAMI for Tm calculation via the first-derivative method. Differences in Tm values (ΔTm) were considered statistically significant when p < 0.05, as determined by the Kruskal–Wallis test followed by Dunn’s post-test for multiple comparisons, performed using GraphPad Prism 10.0 (GraphPad Software, San Diego, CA, USA, www.graphpad.com).
Background: DSF heats the sample and reads unfolding from a dye or from intrinsic fluorescence.

A further data set deals with L. braziliensis Hsp83. The data set can be described thus: Hsp83 interaction by differential scanning fluorimetry. Format: binding, Leishmania braziliensis. As for the experimental part: as §1, §2
The nature of data set [2]: Metabolic stability in mouse liver microsomes. The class given is in vitro ADME. As to conditions: pH 7.4, MLM, with NADPH cofactor; for microsomal CLint at 5 μM: read-out: Clint, intrinsic clearance; for half-life at 5 μM: read-out: t1/2, microsomal half-life. As for the experimental part:
To a microcentrifuge tube was added 1 mg/mL Mouse Liver Microsome (MLM), a NADPH generating system consisting of 1 mM NADP+, 1.5 mM MgCl2, 3.5 mM glucose-6-phosphate and 0.5 U/mL glucose-6-phosphate dehydrogenase, and phosphate buffer (pH 7.4) in a sufficient amount for a total volume of […]. After a 15 min preincubation at 37 °C in a water bath, the enzymatic reactions were started by adding 2 μL of a […] stock solution of each compound to be assessed, reaching a final concentration of 5 μM in the tested compound. , The samples were further incubated at 37 °C under stirring (30 rpm) for predetermined periods (0, 15, 30, 45, and 60 min), and 500 μL chilled MeOH and 500 μL chilled acetonitrile were added before the samples were homogenized and left standing in an ice bath to accelerate protein precipitation. The resulting mixture was centrifugated at 13000 rpm for 15 min at 4 °C, the organic layer was extracted and 2 μL internal standard (clonazepam 5 μM) was added. Finally, the samples were filtered through a PVDF filter (Millex 0.22 μm x 13 mm) and analyzed by HPLC-PDA. ,
(In general: Liver microsomes are a subcellular fraction often used to study metabolism.)

The values below come from paper PMC12384620, “Hit-to-Lead Studies of Pyrazinylpiperazines against Visceral Leishmaniasis: Pharmacokinetic Profile and In Vivo Efficacy of Potent Compounds against Leishmania infantum” (ACS Pharmacology & Translational Science, 2025).

In general, IC50 refers to the concentration needed to halve the response being measured.

In the case of `O=C(c1ccc(O)c(Cl)c1)N1CCN(c2cnccn2)CC1` [Compound 1, (3-Chloro-4-hydroxyphenyl)(4-(pyrazin-2-yl)piperazin-1-yl)methanone], the Papp at 0.2 mg/mL in data set [1] worked out at 0.52 ×10⁻⁶ cm/s. The molecule also came in with a concentration for half-maximal inhibition (IC50) with L. braziliensis of 11.7 ± 0.7 µM. Also, the “inhibition of L. infantum GSK-3A” value with L. infantum GSK-3A is recorded as “did not exert any inhibition”. The “interaction with L. braziliensis SOD (DSF titration curves)” value with L. braziliensis SOD (100 μM to 12.5 μM) is on record as “neither of these compounds interacts”. Moreover, the “interaction with L. braziliensis Hsp83 (DSF titration curves)” value with L. braziliensis Hsp83 (100 μM to 12.5 μM) is listed as “neither of these compounds interacts”. Besides, in data set [2], the microsomal CLint at 5 μM is 1.23 µL/min/mg and the half-life at 5 μM came out at 141 min.
On to `O=C(c1ccc(O)cc1)N1CCN(c2cnccn2)CC1` [Compound 2, (4-Hydroxyphenyl)(4-(pyrazin-2-yl)piperazin-1-yl)methanone], for which the Papp at 0.2 mg/mL in data set [1] is 0.55 ×10⁻⁶ cm/s. In addition, the IC50 in the data set with L. braziliensis stood at 7.6 ± 3.2 µM. The “inhibition of L. infantum GSK-3A” value in the data set with L. infantum GSK-3A is recorded as “no inhibitory effect”. In the data set with L. braziliensis SOD (100 μM), the “effect on Tm of L. braziliensis SOD (DSF)” value is recorded as “failed to exert statistically significant effects”. Further, the “effect on Tm of L. braziliensis Hsp83 (DSF)” value in the data set with L. braziliensis Hsp83 (100 μM) is recorded as “failed to exert statistically significant effects”. For the same molecule, in data set [2], the microsomal CLint at 5 μM was determined as 0.55 µL/min/mg and the half-life at 5 μM came out at 315 min.
